Laboratory results from PubChem BioAssay (NCI).
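Growth conditions: 96-well plates. Treatment: test compound, 48 hours, 5 concentrations. Analysis: linear interpolation between bracketing concentrations; unreached endpoints set to highest concentration. GI50: concentration for 50% inhibition of growth. TGI denotes the concentration required for complete inhibition of growth.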

Legend:
Assay in all cases: inhibition of tumour cell growth, NCI panel, 48 h
NCI-H23 lung = tested on: NCI-H23 lung
HCC-2998 colon = tested on: HCC-2998 colon
HCT-15 colon = tested on: HCT-15 colon
HOP-62 NSCLC = tested on: HOP-62 NSCLC
OVCAR-8 ovarian = tested on: OVCAR-8 ovarian
EKVX NSCLC = tested on: EKVX NSCLC
K-562 leukemia = tested on: K-562 leukemia
HCT-116 colon = tested on: HCT-116 colon
IGROV1 ovarian = tested on: IGROV1 ovarian
NCI-H226 lung = tested on: NCI-H226 lung

Row | Structure (SMILES) | TGI (NCI-H23 lung) | TGI (HCC-2998 colon) | TGI (HCT-15 colon) | TGI (HOP-62 NSCLC) | TGI (OVCAR-8 ovarian) | TGI (EKVX NSCLC) | TGI (K-562 leukemia) | TGI (HCT-116 colon) | TGI (IGROV1 ovarian) | TGI (NCI-H226 lung) | GI50 (NCI-H23 lung) | GI50 (HCC-2998 colon) | GI50 (HCT-15 colon) | GI50 (IGROV1 ovarian) | GI50 (HOP-62 NSCLC) | GI50 (NCI-H226 lung) | GI50 (OVCAR-8 ovarian) | GI50 (EKVX NSCLC) | GI50 (K-562 leukemia) | GI50 (HCT-116 colon)
1 | Cc1cc(Cl)ccc1NC(=O)/C(Cl)=C(/Cl)C(=O)O | 67.8 µM | 39.3 µM | 37.9 µM | 47.7 µM | 34.2 µM | 39.9 µM | > 100 µM | 37.9 µM |  |  |  |  |  |  |  |  |  |  |  | 
2 | COc1ccc(CN2C(=O)C(Cc3cc(OC)c(OC)c(C)c3OC)N(C(=O)OC(C)C)C(=O)/C2=C/c2cc(OC)c(OC)c(C)c2OC)cc1 (stereo not given) | > 100 µM | > 100 µM |  | > 100 µM | > 100 µM | > 100 µM | > 100 µM | > 100 µM | > 100 µM | > 100 µM |  |  |  |  |  |  |  |  |  | 
3 | CC(=O)Oc1ccc2ccc(=O)oc2c1OC(C)=O | > 100 µM | > 100 µM | > 100 µM | > 100 µM | > 100 µM | > 100 µM | > 100 µM | > 100 µM | > 100 µM |  |  |  |  |  |  |  |  |  |  | 
4 | CN(CCCCCl)P(=O)(OCc1ccc([N+](=O)[O-])o1)C(F)(F)c1ccc(CC(=O)N[C@@H](CC(=O)O)C(=O)N[C@@H](Cc2ccc(C(F)(F)P(=O)(OCc3ccc([N+](=O)[O-])o3)N(C)CCCCCl)cc2)C(N)=O)cc1 (stereo not given in full) | > 100 µM | 56.7 µM | > 100 µM | > 100 µM | > 100 µM | > 100 µM | 55.7 µM |  | > 100 µM | > 100 µM | 51.7 µM | 24.5 µM | > 100 µM | 45.7 µM | > 100 µM | > 100 µM | > 100 µM | 67.7 µM | 22.4 µM | 
5 | COc1ccc(NC(=O)CC/C(CC(=O)c2ccccc2Cl)=N\Nc2nnc(C)n2N)cc1 | > 100 µM | > 100 µM | > 100 µM |  | > 100 µM | > 100 µM | > 100 µM | > 100 µM | > 100 µM | > 100 µM |  |  |  |  |  |  |  |  |  | 
6 | COCC1C(=O)c2cc3c(cc2C12C=CC1(C=C2)OCCO1)OCO3 (stereo not given) | 26.9 µM |  | 2.96 µM | 36.2 µM | 13.1 µM | 30.4 µM | 11.2 µM | 6.77 µM | 29.4 µM | 22.8 µM |  |  |  |  |  |  |  |  |  | 
7 | Cc1cc(C)nc(NS(=O)(=O)c2ccc(NC(=O)c3cccc4c(Nc5ccc(S(=O)(=O)Nc6nc(C)cc(C)n6)cc5)c5ccccc5nc34)cc2)n1 | 57.3 µM |  | 49 µM | 66 µM | 68.1 µM | 55.1 µM | 61.2 µM | 26 µM | > 100 µM |  |  |  |  |  |  |  |  |  |  | 
8 | COc1ccc(C(=O)/C(=N/Nc2ccccc2)c2ccc(OC)cc2)cc1 | > 100 µM | > 100 µM | > 100 µM |  | > 100 µM | > 100 µM | > 100 µM | > 100 µM | > 100 µM | > 100 µM |  |  |  |  |  |  |  |  |  | 
9 | O=C(CCc1nnc(-c2c(Cl)cccc2Cl)o1)c1nc2ccccc2[nH]1 | 63.2 µM | 32.3 µM | 48.6 µM | 41.3 µM | > 100 µM | > 100 µM |  | 13.5 µM | 39.1 µM | 31.2 µM | 3.23 µM | 6.52 µM | 5.13 µM | 5.26 µM | 7.67 µM | 6.66 µM | 9.26 µM | 5.48 µM |  | 3.33 µM
10 | CC1(C)CC(=O)C(C(c2cccc(O)c2O)C2C(=O)CC(C)(C)CC2=O)C(=O)C1 | > 100 µM |  | > 100 µM | > 100 µM | > 100 µM | > 100 µM | > 100 µM | > 100 µM | > 100 µM | > 100 µM |  |  |  |  |  |  |  |  |  | 
11 | C/C(=N\Nc1ccc2ccccc2n1)c1ccccc1O | > 100 µM |  | > 100 µM | > 47.9 µM | > 100 µM | > 100 µM | > 100 µM | > 100 µM | > 100 µM | > 100 µM |  |  |  |  |  |  |  |  |  | 
12 | CC1(C)Cc2cccc(OCC(O)CN3CCN(c4ccc(F)cc4)CC3)c2O1 (stereo not given) | > 50 µM |  | > 50 µM | > 50 µM | > 50 µM | > 50 µM | > 50 µM | 15 µM | > 50 µM | > 50 µM | 19.1 µM |  | 13.5 µM | 20 µM | 21.9 µM | 17.1 µM | 18.2 µM | 25 µM | 16.6 µM | 7.34 µM
13 | COC(=O)NNc1c([N+](=O)[O-])cnn(-c2ccccc2)c1=O | 5.82 µM | 9.72 µM | 5.58 µM | 14.9 µM | 3.75 µM | 9.75 µM |  | 3.9 µM | 36.2 µM | 9.78 µM |  |  |  |  |  |  |  |  |  | 
14 | O=C(CCCCCCC(=O)N/N=C/c1ccc(N(c2ccccc2)c2ccccc2)cc1)NO | 10.7 µM | 11.2 µM | 12 µM | 10.2 µM | 20.8 µM | 15.2 µM |  | 1.97 µM | 2.74 µM |  | 2.41 µM | 2.87 µM | 2.69 µM | 0.505 µM | 2.21 µM |  | 3.02 µM | 3.82 µM |  | 0.349 µM
15 | [N-]=[N+]=Nc1ccccc1-[n+]1noc([O-])c1Br | > 100 µM |  | > 100 µM | > 100 µM | > 100 µM | > 100 µM | > 100 µM | > 100 µM | > 100 µM | > 100 µM |  |  |  |  |  |  |  |  |  | 
16 | CCOc1cc(C=O)c2c(ccc3ccc(OC)c(OC)c32)c1OC | > 100 µM | > 100 µM | > 100 µM |  | > 100 µM | > 100 µM | > 100 µM | > 100 µM | > 100 µM | > 100 µM |  |  |  |  |  |  |  |  |  | 
17 | O=C(c1ccccc1)c1ccc(Cl)c([N+](=O)[O-])c1 | 32.8 µM |  | 9.86 µM | 28.8 µM | 17.7 µM |  | 11.9 µM | 18.1 µM | 23.9 µM | 51.7 µM | 16.2 µM |  | 2.95 µM | 7.92 µM | 13.8 µM | 19.8 µM | 4.7 µM |  | 3.44 µM | 4.78 µM
18 | Nc1ncnc2c1c(-c1cccc(OCc3ccccc3)c1)cn2C1CC(CN2CCCC2)C1 (stereo not given) | 16 µM | 6.13 µM | 5.94 µM | 5.5 µM | 18 µM |  | 6.54 µM | 5.34 µM | 7.5 µM | 6.98 µM | 2.91 µM | 2 µM | 1.47 µM | 2.92 µM | 1.99 µM | 1.34 µM | 4.74 µM |  | 1.86 µM | 1.38 µM
